Reference: DBAASP
In brackets after ≈: the same amount, converted by molar mass.

Experiments:
Experiment in all cases: ≥ marks a high value that may be exact or a test limit, other limits are often not marked, values filed in µg/mL are converted to µM
[1] = system: Escherichia coli DSM 1103
[2] = system: Pseudomonas aeruginosa DSM 1117
[3] = system: Staphylococcus aureus DSM 1104
[4] = system: Staphylococcus epidermidis DSM 1798
[5] = system: Mycobacterium tuberculosis H37Rv
Bacillus subtilis = system: Bacillus subtilis
Escherichia coli = system: Escherichia coli
Klebsiella pneumoniae = system: Klebsiella pneumoniae
Micrococcus luteus = system: Micrococcus luteus
Proteus mirabilis = system: Proteus mirabilis
Pseudomonas aeruginosa = system: Pseudomonas aeruginosa
Salmonella typhimurium = system: Salmonella typhimurium
Shigella dysenteriae = system: Shigella dysenteriae
Staphylococcus aureus = system: Staphylococcus aureus
[6] = system: Staphylococcus epidermidis
[7] = system: Escherichia coli ATCC 25922
Serratia marcescens = system: Serratia marcescens
[8] = system: Staphylococcus aureus ATCC 2592
Bacillus cereus = system: Bacillus cereus
Enterococcus faecalis = system: Enterococcus faecalis
Leuconostoc lactis = system: Leuconostoc lactis
Listeria innocua = system: Listeria innocua
Pasteurella multocida = system: Pasteurella multocida
Streptococcus uberis = system: Streptococcus uberis
[9] = system: Corynebacterium glutamicum ATCC 13032
[10] = system: Pseudomonas aeruginosa ATCC 27853
[11] = system: Staphylococcus aureus ATCC 9144
[12] = system: Bacillus cereus ATCC 11778
[13] = system: Klebsiella aerogenes ATCC 13048
[14] = system: Salmonella enterica subsp. enterica serovar Typhimurium ATCC 14028
[15] = system: Staphylococcus aureus ATCC 29213
Acinetobacter baumannii = system: Acinetobacter baumannii

SMILES	MIC (Bacillus subtilis)	MIC (Escherichia coli)	MIC (Klebsiella pneumoniae)	MIC (Micrococcus luteus)	MIC (Proteus mirabilis)	MIC (Pseudomonas aeruginosa)	MIC (Salmonella typhimurium)	MIC (Shigella dysenteriae)	MIC (Staphylococcus aureus)	MIC [6]	other results
CC[C@H](C)[C@H](NC(=O)CNC(=O)[C@@H](NC(=O)[C@H](C)N)C(C)C)C(=O)NCC(=O)N[C@@H](C)C(=O)N[C@@H](CC(C)C)C(=O)N[C@@H](Cc1ccccc1)C(=O)N[C@@H](CC(C)C)C(=O)NCC(=O)N[C@@H](Cc1ccccc1)C(=O)N[C@@H](CC(C)C)C(=O)NCC(=O)N[C@@H](C)C(=O)N[C@@H](C)C(=O)NCC(=O)N[C@@H](CO)C(=O)N[C@H](C(=O)N[C@@H](CCSC)C(=O)NCC(=O)N[C@@H](C)C(=O)N[C@@H](CCCN=C(N)N)C(=O)N[C@@H](CO)C(N)=O)[C@@H](C)O [AVGIGALFLGFLGAAGSTMGARS]	–	–	–	–	–	–	–	–	–	–	MIC [1]: ≥ 117 µM; MIC [2]: ≥ 117 µM; MIC [3]: ≥ 117 µM; MIC [4]: ≥ 117 µM
CC(C)C[C@H](NC(=O)[C@H](Cc1c[nH]c2ccccc12)NC(=O)[C@H](Cc1c[nH]c2ccccc12)NC(=O)[C@H](CCCN=C(N)N)NC(=O)[C@H](CO)NC(=O)[C@H](CC(C)C)NC(=O)[C@H](CCCCN)NC(=O)[C@H](CCCCN)NC(=O)[C@@H](NC(=O)[C@H](C)N)C(C)C)C(=O)N[C@@H](CCCN=C(N)N)C(=O)N[C@@H](Cc1c[nH]c2ccccc12)C(=O)N[C@@H](Cc1c[nH]c2ccccc12)C(=O)N[C@@H](CCCCN)C(=O)N[C@@H](CCCCN)C(=O)O [AVKKLSRWWLRWWKK]	–	–	–	–	–	–	–	–	–	–	MIC [5]: 18.1 µM (≈ 37.5 µg/mL)
CC(C)C[C@H](NC(=O)[C@H](C)NC(=O)CNC(=O)[C@H](CC(C)C)NC(=O)[C@@H](N)Cc1ccccc1)C(=O)N[C@@H](Cc1ccccc1)C(=O)N[C@@H](CCCCN)C(=O)N[C@H](C(=O)N[C@@H](C)C(=O)N[C@@H](Cc1c[nH]c2ccccc12)C(=O)N[C@@H](CCCCN)C(=O)O)C(C)C [FLGALFKVAWK]	19.5 µM (≈ 25 µg/mL)	78.2 µM (≈ 100 µg/mL)	39.1 µM (≈ 50 µg/mL)	19.5 µM (≈ 25 µg/mL)	≥ 156 µM	> 156 µM	≥ 156 µM	≥ 78.2 µM	9.77 µM (≈ 12.5 µg/mL)	≥ 39.1 µM	–
CC[C@H](C)[C@@H]1NC(=O)[C@H](CCCCN)NC(=O)[C@@H](NC(=O)[C@H](CCSC)NC(=O)[C@H](CC(C)C)NC(=O)[C@@H]2CCCN2C(=O)[C@H](Cc2ccccc2)NC(=O)[C@H](CC(C)C)NC(=O)[C@H](CC(C)C)NC(=O)[C@@H](N)Cc2ccccc2)CSSC[C@@H](C(=O)O)NC(=O)[C@H](CCCCN)NC(=O)CNC(=O)[C@H](CCC(N)=O)NC1=O [FLLFPLMCKIQGKC]	–	–	> 60.9 µM	–	–	–	–	–	–	–	MIC [7]: > 60.9 µM; MIC (Serratia marcescens): ≥ 60.9 µM; MIC [8]: 22.9 µM (≈ 37.5 µg/mL)
CC(C)C[C@H](NC(=O)[C@H](C)NC(=O)CN)C(=O)N[C@@H](Cc1ccccc1)C(=O)N[C@@H](CCCCN)C(=O)N[C@H](C(=O)N[C@@H](C)C(=O)N[C@@H](CO)C(=O)N[C@@H](CCCCN)C(=O)N[C@H](C(=O)N[C@@H](CC(C)C)C(=O)N1CCC[C@H]1C(=O)N[C@@H](CO)C(=O)O)C(C)C)C(C)C [GALFKVASKVLPS]	≥ 152 µM	> 152 µM	> 152 µM	≥ 152 µM	≥ 152 µM	> 152 µM	≥ 152 µM	≥ 152 µM	> 152 µM	≥ 152 µM	–
CC(C)[C@H](NC(=O)[C@@H](NC(=O)[C@H](CCCN=C(N)N)NC(=O)[C@H](CCCN=C(N)N)NC(=O)[C@H](Cc1c[nH]c2ccccc12)NC(=O)[C@H](Cc1c[nH]c2ccccc12)NC(=O)CN)[C@@H](C)O)C(=O)N[C@@H](CCCN=C(N)N)C(=O)N[C@@H](CCCCN)C(N)=O [GWWRRTVRK]	–	–	–	–	–	–	–	–	–	–	MIC [9]: 3.1 µM (≈ 3.85 µg/mL); MIC [7]: 50 µM (≈ 62.2 µg/mL); MIC [10]: 25 µM (≈ 31.1 µg/mL); MIC [11]: ≥ 100 µM
CC[C@H](C)[C@H](N)C(=O)N[C@@H](CC(C)C)C(=O)NCC(=O)N[C@@H](CCCCN)C(=O)N[C@@H](CC(C)C)C(=O)N[C@@H](Cc1c[nH]c2ccccc12)C(=O)N[C@@H](CCC(=O)O)C(=O)NCC(=O)N[C@@H](CC(C)C)C(=O)N[C@@H](CCCCN)C(=O)N[C@@H](CO)C(=O)N[C@@H](CC(C)C)C(=O)N[C@@H](Cc1ccccc1)C(N)=O [ILGKLWEGLKSLF]	–	–	–	–	–	–	–	–	–	–	MIC [12]: ≥ 66.5 µM; MIC [7]: 33.2 µM (≈ 50 µg/mL); MIC [13]: ≥ 66.5 µM; MIC [14]: 66.5 µM (≈ 99.9 µg/mL); MIC [15]: 33.2 µM (≈ 50 µg/mL)
CC(C)C[C@H](NC(=O)[C@H](Cc1c[nH]c2ccccc12)NC(=O)[C@H](CCCCN)NC(=O)[C@H](CC(C)C)NC(=O)[C@H](CC(C)C)NC(=O)[C@H](CCCCN)NC(=O)[C@H](CCCN=C(N)N)NC(=O)[C@H](Cc1c[nH]c2ccccc12)NC(=O)[C@H](CCCCN)NC(=O)[C@@H](N)CCCCN)C(=O)N[C@@H](C)C(=O)N[C@@H](CCCCN)C(=O)N[C@@H](CCCCN)C(N)=O [KKWRKLLKWLAKK]	–	–	–	–	–	0.753 µM (≈ 1.3 µg/mL)	–	–	2.49 µM (≈ 4.3 µg/mL)	–	MIC (Acinetobacter baumannii): 1.33 µM (≈ 2.3 µg/mL); MIC (Enterococcus faecalis): 1.56 µM (≈ 2.7 µg/mL)

Further lines, with some results ahead:

MIC (Bacillus subtilis)	MIC (Escherichia coli)	MIC (Klebsiella pneumoniae)	MIC (Micrococcus luteus)	MIC (Proteus mirabilis)	MIC (Pseudomonas aeruginosa)	MIC (Salmonella typhimurium)	MIC (Shigella dysenteriae)	MIC (Staphylococcus aureus)	MIC [6]	SMILES	other results
≥ 156 µM	> 156 µM	> 156 µM	≥ 156 µM	≥ 156 µM	> 156 µM	≥ 156 µM	≥ 156 µM	> 156 µM	≥ 156 µM	CC(C)C[C@H](NC(=O)[C@H](C)NC(=O)CNC(=O)[C@H](CC(C)C)NC(=O)[C@@H](N)Cc1ccccc1)C(=O)N[C@@H](Cc1ccccc1)C(=O)N[C@@H](CCCCN)C(=O)N[C@H](C(=O)N[C@@H](C)C(=O)N[C@@H](CO)C(=O)N[C@@H](CCCCN)C(=O)N[C@H](C(=O)O)C(C)C)C(C)C [FLGALFKVASKV]	–
≥ 154 µM	> 154 µM	> 154 µM	≥ 154 µM	≥ 154 µM	> 154 µM	≥ 154 µM	≥ 154 µM	> 154 µM	≥ 154 µM	CC(C)C[C@H](NC(=O)[C@H](C)NC(=O)CNC(=O)[C@H](CC(C)C)NC(=O)[C@@H](N)Cc1ccccc1)C(=O)N[C@@H](Cc1ccccc1)C(=O)N[C@@H](CCCCN)C(=O)N[C@H](C(=O)N[C@@H](Cc1c[nH]c2ccccc12)C(=O)N[C@@H](CO)C(=O)N[C@@H](CCCCN)C(=O)O)C(C)C [FLGALFKVWSK]	–
–	> 46.6 µM	–	≥ 46.6 µM	–	–	–	–	> 46.6 µM	≥ 46.6 µM	CC[C@H](C)[C@H](NC(=O)[C@H](C)NC(=O)[C@@H]1CCCN1C(=O)[C@@H](NC(=O)[C@@H](NC(=O)[C@H](Cc1cnc[nH]1)NC(=O)[C@H](C)NC(=O)[C@H](C)NC(=O)[C@@H](NC(=O)[C@H](CCCCN)NC(=O)[C@H](C)NC(=O)[C@H](CC(C)C)NC(=O)[C@@H](NC(=O)CNC(=O)[C@H](Cc1ccccc1)NC(=O)[C@H](CC(C)C)NC(=O)CN)C(C)C)C(C)C)C(C)C)C(C)C)C(=O)N[C@@H](C)C(=O)N[C@@H](CCC(=O)O)C(=O)N[C@@H](Cc1cnc[nH]1)C(=O)N[C@@H](Cc1ccccc1)C(=O)O [GLFGVLAKVAAHVVPAIAEHF]	MIC (Bacillus cereus): ≥ 46.6 µM; MIC (Enterococcus faecalis): ≥ 46.6 µM; MIC (Leuconostoc lactis): 23.3 µM (≈ 50 µg/mL); MIC (Listeria innocua): ≥ 46.6 µM; MIC (Pasteurella multocida): ≥ 46.6 µM; MIC (Streptococcus uberis): ≥ 46.6 µM
